Experimental data: paper PMC10728849, “Solubility of Some Drugs in Aqueous Solutions of Choline Chloride-Based Deep Eutectic Solvent Systems: Experimental Data, Modeling, and the Impact of Solution pH” (Iranian Journal of Pharmaceutical Research : IJPR, 2023)
Converted amounts (≈) assume the structure as drawn. Marks after values point to notes of the source that are not given here.

Tests used:
[1] = Solubility measurement by shake flask method (UV spectrophotometry); conditions: for solubility at 48 h: 37 °C, thermodynamic from solid, 37 ± 1°C; for SChCl-G50%/ SChCl-G10% / SChCl-U50%/ SChCl-U10%: solubility ratio in DES50% to DES10%; for SChCl-G50%/ SChCl-G10%: ChCl-G; for SChCl-U50%/ SChCl-U10%: ChCl-U
Description: A DES composed of ChCl + G/U was selected for this study. It was prepared based on a previously reported method in the literature ([13], [14]). First, the components of DESs, including ChCl as a hydrogen bond acceptor (HBA) and G/U as a hydrogen bond donor (HBD), were weighed using an analytical balance (ATX224, Shimadzu, Japan) with 1×10^-4 g precision at a specific mole fraction of 1:2, respectively. The measured amounts of these compositions were added into a beaker and sealed firmly with Parafilm. Then, it was heated at 70°C while stirring at 550 rpm for 60 minutes until a clear and uniform liquid was formed. At the end of the synthesis process of DES, the prepared liquids were cooled and used as a new class of cosolvents for drug solubilization.
Many different techniques of solubility measurements have been reported in the literature. The shake flask is a popular and convenient method for solubility determination ([21]), which was applied in this study. First, solvent mixtures were made by weighing 10:90% and 50:50% mass fractions of DES: water, respectively. Excess amounts of poorly soluble drugs were added into glass vials containing 4 g prepared solvent mixtures. All of the vials were shaken on a shaker (Heidolph, Schwabach, Germany) and placed in an incubator (Kimia Idea Pardaz Azarbaijan (KIPA) co., Tabriz, Iran) at 37 ± 1°C and 180 rpm for 48 hours. […] The saturated solutions were centrifuged at 6000 rpm for 15 minutes (Tomy Micro One, Tokyo, Japan) and filtered in some cases (Filter Bioscience Membrane Technology Co., 0.22 µm). […] Finally, the absorbance of each solution was converted to concentration using the calibration curves, taking into account the dilution factor. The solubility of each drug was then calculated. Solubilities were determined three times in all cases, and the mean ± standard deviation of data was reported.

[2] = pH of saturated solutions (final pH of dissolution medium); type: physicochemical
Description: Acidic and basic compounds can change the pH of the dissolution medium in water.

[3] = parameters: method as in doi:10.1016/j.molliq.2018.07.065; conditions: cited from earlier work
[4] = cited from earlier work
[5] = aqueous with cosolvent or surfactant or cyclodextrin, Water + ChCl-G10%, 10:90% mass fraction choline chloride-glycerol (1:2) DES:water
[6] = aqueous with cosolvent or surfactant or cyclodextrin, Water+ ChCl-G50%, 50:50% mass fraction choline chloride-glycerol (1:2) DES:water
[7] = pH 7.5, aqueous with cosolvent or surfactant or cyclodextrin, Water + ChCl-U10%, 10:90% mass fraction choline chloride-urea (1:2) DES:water
[8] = pH 8.3, aqueous with cosolvent or surfactant or cyclodextrin, Water+ ChCl-U50%, 50:50% mass fraction choline chloride-urea (1:2) DES:water

solubility at 48 h [1, 5]	solubility at 48 h [1, 6]	solubility at 48 h [1, 7]	solubility at 48 h [1, 8]	SChCl-G50%/ SChCl-G10% [1]	SChCl-U50%/ SChCl-U10% [1]	pH of saturated solution ([2]; in ChCl-U10%)	pH of saturated solution ([2]; in ChCl-U50%)	pH of saturated solution ([2]; in water)	SMILES	Solubility, Water [3]	pKa [4]
32 ± 2 µg/mL	40 ± 1 µg/mL (≈ 121 µM)	571 ± 35 µg/mL	2070 ± 36 µg/mL (≈ 6250 µM)	1.28	3.63	6.1	6.2	5.6	CN1C(C(=O)Nc2ccccn2)=C(O)c2ccccc2S1(=O)=O [Piroxicam, piroxicam]	0.032 ± 0.0014 ^a g/L	–
–	–	–	–	–	–	–	–	–	O=C(O)CO [Glycolic acid]	–	3.6
7060 ± 422 µg/mL	12700 ± 265 µg/mL (≈ 92200 µM)	9840 ± 555 µg/mL	32400 ± 671 µg/mL (≈ 234000 µM)	1.80	3.29	–	–	–	O=C(O)c1ccccc1O [Salicylic acid, salicylic acid]	2.755 ± 0.3031 ^a g/L	–
60 ± 5 µg/mL	255 ± 20 µg/mL (≈ 1010 µM)	104 ± 8 µg/mL	753 ± 60 µg/mL (≈ 2980 µM)	4.24	7.25	–	–	–	O=C1NC(=O)C(c2ccccc2)(c2ccccc2)N1 [Phenytoin, phenytoin]	0.056 ± 0.0053 ^a g/L	–
506 ± 17 µg/mL	2285 ± 18 µg/mL (≈ 8920 µM)	482 ± 15 µg/mL	2126 ± 16 µg/mL (≈ 8300 µM)	4.52	4.41	–	–	–	Nc1nnc(-c2cccc(Cl)c2Cl)c(N)n1 [Lamotrigine, lamotrigine]	0.342 ± 0.0161 ^a g/L	–
–	2730 ± 230 µg/mL (≈ 11600 µM)	463 ± 10 µg/mL	3930 ± 344 µg/mL (≈ 16600 µM)	8.54	8.48	–	–	–	NC(=O)N1c2ccccc2C=Cc2ccccc21 [Carbamazepine, carbamazepine]	0.296 ± 0.0139 ^a g/L	–
35 ± 1 µg/mL	77 ± 7 µg/mL (≈ 145 µM)	28 ± 1 µg/mL	62 ± 6 µg/mL (≈ 117 µM)	2.16	2.24	–	–	–	CC(=O)N1CCN(c2ccc(OCC3COC(Cn4ccnc4)(c4ccc(Cl)cc4Cl)O3)cc2)CC1 (stereo not drawn) [Ketoconazole, ketoconazole]	0.008 ± 0.0008 ^a g/L	–
–	–	–	–	1.03	1.05	–	–	–	CC(C)NCC(O)COc1ccc(CC(N)=O)cc1 (stereo not drawn) [Atenolol, atenolol]	–	–
17 ± 2 µg/mL	91 ± 6 µg/mL (≈ 234 µM)	18 ± 2 µg/mL	151 ± 10 µg/mL (≈ 388 µM)	5.25	8.42	–	–	–	CN1CC(=O)N2[C@H](c3ccc4c(c3)OCO4)c3[nH]c4ccccc4c3C[C@@H]2C1=O [Tadalafil, tadalafil]	0.016 ± 0.0019 ^a g/L	–
141 ± 8 µg/mL	242 ± 4 µg/mL (≈ 1170 µM)	1300 ± 263 µg/mL	3890 ± 622 µg/mL (≈ 18900 µM)	–	–	4.5	4.9	6.4	CC(C)Cc1ccc(C(C)C(=O)O)cc1 (stereo not drawn) [Ibuprofen]	0.104 ± 0.0035 ^a g/L	–

SMILES	solubility at 48 h [1, 5]	solubility at 48 h [1, 6]	solubility at 48 h [1, 7]	solubility at 48 h [1, 8]	SChCl-G50%/ SChCl-G10% [1]	SChCl-U50%/ SChCl-U10% [1]	pH of saturated solution ([2]; in ChCl-U10%)	pH of saturated solution ([2]; in ChCl-U50%)	pH of saturated solution ([2]; in water)	Solubility, Water [3]	pKa [4]
O=C(O)c1ccccc1 [Benzoic acid, benzoic acid]	–	–	–	–	1.76	3.16	–	–	–	–	–
c1ccc2c(c1)Nc1ccccc1S2 [Phenothiazine, phenothiazine]	5 µg/mL	99 ± 10 µg/mL (≈ 497 µM)	23 ± 0.3 µg/mL	135 ± 15 µg/mL (≈ 677 µM)	18.06	5.83	–	–	–	0.003 ± 0.0004 ^a g/L	–
COc1ccccc1OCCNCC(O)COc1cccc2[nH]c3ccccc3c12 (stereo not drawn) [Carvedilol, carvedilol]	159 ± 12 µg/mL	873 ± 27 µg/mL (≈ 2150 µM)	91 ± 7 µg/mL	620 ± 20 µg/mL (≈ 1530 µM)	5.48	6.79	–	–	–	0.032 ± 0.0030 ^a g/L	–
